# Literature values in EP2959895A1, “Compositions comprising Phenylalanine and Leucine for use in the diagnosis and treatment of neurological disorders and symptoms thereof” (Rheinisch-Westfälische Technische Hochschule Aachen (RWTH), priority 2014, dated 2015).
# Target: T1, L-1 transporter (Rattus norvegicus, UniProt Q63016)
# T1 construct: blood brain barrier (BBB) transport for fourteen amino acids in anesthetized rats; host or cells: Blood-brain barrier of anesthetized rats, in vivo
# Details: blood brain barrier (BBB) transport, anesthetized rats; Pardridge and Oldendorf 1975
# T1 sequence (Q63016 whole entry): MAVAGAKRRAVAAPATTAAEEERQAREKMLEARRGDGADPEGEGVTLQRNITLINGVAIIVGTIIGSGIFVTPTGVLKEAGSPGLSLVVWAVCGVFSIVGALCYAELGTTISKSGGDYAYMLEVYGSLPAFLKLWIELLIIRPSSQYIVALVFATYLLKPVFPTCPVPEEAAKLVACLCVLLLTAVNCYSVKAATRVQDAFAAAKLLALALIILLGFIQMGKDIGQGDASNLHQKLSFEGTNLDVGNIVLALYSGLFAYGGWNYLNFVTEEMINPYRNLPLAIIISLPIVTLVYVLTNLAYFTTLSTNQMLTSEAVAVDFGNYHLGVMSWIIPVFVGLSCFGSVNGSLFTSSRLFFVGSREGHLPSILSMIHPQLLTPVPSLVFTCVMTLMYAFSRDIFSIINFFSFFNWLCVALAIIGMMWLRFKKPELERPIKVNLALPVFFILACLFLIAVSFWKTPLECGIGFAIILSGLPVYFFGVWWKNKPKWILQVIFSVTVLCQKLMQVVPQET
# T1 sequence (Q794F9 whole entry partner): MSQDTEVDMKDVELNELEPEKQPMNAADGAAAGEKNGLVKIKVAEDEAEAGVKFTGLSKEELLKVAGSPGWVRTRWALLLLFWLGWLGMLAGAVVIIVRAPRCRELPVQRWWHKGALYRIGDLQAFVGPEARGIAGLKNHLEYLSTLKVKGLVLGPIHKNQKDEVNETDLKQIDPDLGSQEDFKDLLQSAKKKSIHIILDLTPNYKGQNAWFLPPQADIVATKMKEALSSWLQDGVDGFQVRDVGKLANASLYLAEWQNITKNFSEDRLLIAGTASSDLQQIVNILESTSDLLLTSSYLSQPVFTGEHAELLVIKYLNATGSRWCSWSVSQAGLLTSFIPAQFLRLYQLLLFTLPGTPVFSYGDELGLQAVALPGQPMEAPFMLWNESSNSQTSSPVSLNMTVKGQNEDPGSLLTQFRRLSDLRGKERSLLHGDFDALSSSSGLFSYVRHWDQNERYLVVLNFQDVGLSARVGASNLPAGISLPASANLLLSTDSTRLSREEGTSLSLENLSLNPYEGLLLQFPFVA
row,Km,SMILES
1,150 µM,CC(C)C[C@H](N)C(=O)O [leucine]
2,120 µM,N[C@@H](Cc1ccccc1)C(=O)O [phenylalanine]
